Drawing on PubChem BioAssay (NCI), this text covers TGI for seven molecules.

Among the test systems are MDA-N; EKVX NSCLC; U251 CNS; SNB-75 CNS; SK-MEL-28 melanoma; NCI-H226 lung; PC-3 prostate; NCI-H23 lung; HT29 colon; OVCAR-8 ovarian; RXF 393 renal; NCI/ADR-RES ovarian; NCI-H522 lung; HL-60(TB) leukemia; TK-10 renal; K-562 leukemia; OVCAR-5 ovarian; HCC-2998 colon; ACHN renal; CAKI-1 renal.
Common to all, as to assay: NCI-60 cell line screen, 48 h

Each structure is given as a SMILES string.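 Grown in 96-well plates, cells were treated for 48 hours with each compound at five concentrations. Insufficient inhibition: endpoint recorded as highest concentration tested. TGI denotes the concentration required for complete inhibition of growth.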

Regarding `c1ccc([P+](Cc2ccc(C[P+](c3ccccc3)(c3ccccc3)c3ccccc3)s2)(c2ccccc2)c2ccccc2)cc1`, the TGI with MDA-N, in the test with EKVX NSCLC, in the test on U251 CNS, with SNB-75 CNS, with SK-MEL-28 melanoma and in the test on NCI-H226 lung was more than 100 µM throughout. The TGI in the test with PC-3 prostate, with NCI-H23 lung, in the test with HT29 colon, in the test on OVCAR-8 ovarian, with RXF 393 renal and with NCI/ADR-RES ovarian was more than 100 µM each time. For the same molecule, the TGI in the test with NCI-H522 lung, with HL-60(TB) leukemia, in the test with TK-10 renal, in the test on K-562 leukemia, with OVCAR-5 ovarian and with HCC-2998 colon was more than 100 µM each time. Moreover, the TGI in the test with ACHN renal and in the test on CAKI-1 renal was more than 100 µM throughout.
As to `NC(N)=NS(=O)(=O)c1ccc(NCc2cccc3c(=O)c4ccc(Cl)cc4oc23)cc1`, the TGI in the test on MDA-N was more than 19.1 µM; in the test with EKVX NSCLC, more than 21.9 µM; in the test on U251 CNS it was more than 14.6 µM; in the test with SNB-75 CNS, 8.64 µM; in the test with SK-MEL-28 melanoma, more than 23.6 µM; in the test on NCI-H226 lung it was more than 25 µM. Besides, the TGI in the test with PC-3 prostate is more than 14 µM; with NCI-H23 lung, more than 21.8 µM; with HT29 colon it was more than 14.6 µM; in the test with OVCAR-8 ovarian, more than 13.7 µM; in the test on RXF 393 renal, 7.17 µM; in the test with NCI/ADR-RES ovarian it was more than 14 µM. Besides, the TGI in the test with NCI-H522 lung was more than 7.85 µM; in the test on HL-60(TB) leukemia, 5.94 µM; in the test on TK-10 renal, more than 14.5 µM; in the test with K-562 leukemia, more than 25 µM; in the test on OVCAR-5 ovarian, more than 18.9 µM; with HCC-2998 colon it was more than 25 µM. Moreover, the TGI was more than 13.6 µM in the test with ACHN renal and more than 15 µM in the test on CAKI-1 renal.
As to `CCOC(=O)c1sc2c(c1OC(=O)c1ccco1)c(=O)n(-c1ccccc1)c(=S)n2-c1ccccc1`, the TGI was more than 100 µM with MDA-N; 55.4 µM in the test on EKVX NSCLC; more than 100 µM in the test with U251 CNS; more than 100 µM in the test on SNB-75 CNS; more than 100 µM with SK-MEL-28 melanoma; 87.2 µM with NCI-H226 lung. Moreover, the TGI in the test with PC-3 prostate was 50 µM; in the test on NCI-H23 lung, more than 100 µM; in the test on HT29 colon, more than 100 µM; with OVCAR-8 ovarian, 70.8 µM; in the test on RXF 393 renal, 62 µM; in the test with NCI/ADR-RES ovarian it was 57 µM. In addition, the TGI in the test on NCI-H522 lung was more than 100 µM; in the test on HL-60(TB) leukemia, 52.2 µM; in the test with TK-10 renal, more than 100 µM; in the test on K-562 leukemia it was more than 100 µM; in the test with OVCAR-5 ovarian, more than 100 µM; with HCC-2998 colon, more than 100 µM. Moreover, the TGI was determined as 83.8 µM in the test on ACHN renal and 82.8 µM with CAKI-1 renal.
As to `Cc1ccccc1-n1c(=O)nc2n(-c3ccc(C(C)(C)C)cc3)c3ccccc3cc-2c1=O`, the TGI in the test on MDA-N amounted to 82.4 µM; in the test with EKVX NSCLC it was 64.6 µM; in the test with U251 CNS, 28.3 µM; in the test with SNB-75 CNS, 66.3 µM; in the test with SK-MEL-28 melanoma, 28.7 µM; in the test with NCI-H226 lung, 38.2 µM. For the same molecule, the TGI worked out at 45.6 µM in the test with PC-3 prostate; 58.2 µM in the test on NCI-H23 lung; 34.6 µM in the test with HT29 colon; 42.9 µM in the test on OVCAR-8 ovarian; 39 µM in the test with RXF 393 renal; 40.6 µM in the test on NCI/ADR-RES ovarian. Further, the TGI with NCI-H522 lung is 47.6 µM; in the test with HL-60(TB) leukemia, 43.2 µM; in the test with TK-10 renal, more than 100 µM; in the test on K-562 leukemia, more than 100 µM; in the test with OVCAR-5 ovarian, 63.6 µM; with HCC-2998 colon, 32.4 µM. Also, the figures for the TGI in the test with ACHN renal and in the test with CAKI-1 renal were more than 100 µM and 71.4 µM, respectively.
Take `C=C(Cl)C(Cl)(CBr)CCCC(C)C` (stereo not given): the TGI is 97.1 µM in the test on MDA-N; 35 µM in the test on EKVX NSCLC; 21.9 µM with U251 CNS; 41.5 µM in the test on SNB-75 CNS; 37.3 µM with SK-MEL-28 melanoma; more than 100 µM in the test with NCI-H226 lung. In addition, the TGI in the test on PC-3 prostate was 27.5 µM; in the test with NCI-H23 lung, more than 100 µM; in the test on HT29 colon, 15.7 µM; with OVCAR-8 ovarian, 47.6 µM; in the test with RXF 393 renal, 44.2 µM; in the test on NCI/ADR-RES ovarian, more than 80.4 µM. For the same molecule, the TGI is more than 100 µM with NCI-H522 lung; more than 55.1 µM with HL-60(TB) leukemia; 32.4 µM in the test with TK-10 renal; more than 100 µM in the test on K-562 leukemia; 35.6 µM in the test with OVCAR-5 ovarian; 34.1 µM with HCC-2998 colon. Besides, the values for the TGI in the test on ACHN renal and in the test with CAKI-1 renal were 26.2 µM and 12.1 µM, respectively.
Regarding `CN(C)Cc1cc(C(=O)/C=C/c2ccc(Cl)cc2Cl)cc(CN(C)C)c1O`, the TGI was determined as 5.92 µM in the test on MDA-N; 19.7 µM in the test on EKVX NSCLC; 15.7 µM in the test on U251 CNS; 16.7 µM with SNB-75 CNS; 19.1 µM with SK-MEL-28 melanoma; 24 µM in the test with NCI-H226 lung. Further, the TGI with PC-3 prostate is 6.19 µM; in the test with NCI-H23 lung it was 22.6 µM; in the test with HT29 colon, 6.91 µM; with OVCAR-8 ovarian it was 11 µM; with RXF 393 renal, 10.7 µM; with NCI/ADR-RES ovarian, 5.7 µM. For the same molecule, the TGI in the test on NCI-H522 lung is 7.29 µM; in the test on HL-60(TB) leukemia, 8.67 µM; with TK-10 renal, 24.2 µM; with K-562 leukemia, 5.29 µM; with OVCAR-5 ovarian it was 28.7 µM; with HCC-2998 colon it was 20.2 µM. In addition, the TGI with ACHN renal came out at 10.9 µM; in the test on CAKI-1 renal, 5.61 µM.
With `CCOc1ccc(NC(=O)/C=C/c2ccco2)cc1`, the TGI in the test with MDA-N, with EKVX NSCLC, with U251 CNS, in the test with SNB-75 CNS, in the test on SK-MEL-28 melanoma and in the test with NCI-H226 lung was more than 100 µM in each case. The TGI in the test on PC-3 prostate, in the test on NCI-H23 lung, with HT29 colon, in the test on OVCAR-8 ovarian, with RXF 393 renal and in the test on NCI/ADR-RES ovarian was more than 100 µM each time. In addition, the TGI in the test on NCI-H522 lung was more than 100 µM; with HL-60(TB) leukemia it was 44.5 µM; in the test with TK-10 renal, more than 100 µM; in the test on K-562 leukemia, more than 100 µM; with OVCAR-5 ovarian, more than 100 µM; in the test on HCC-2998 colon, more than 100 µM. Moreover, the TGI in the test on ACHN renal and in the test with CAKI-1 renal was more than 100 µM each time.
